Source: PubChem BioAssay (NCI)
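GI50 marks 50% less growth. At the TGI there is no net growth.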

Legend:
Assay in all cases: NCI tumour cell line growth inhibition, 384-well format
BT-549 breast = test system: BT-549 breast
MDA-MB-435 melanoma = test system: MDA-MB-435 melanoma
786-0 renal = test system: 786-0 renal
CAKI-1 renal = test system: CAKI-1 renal
NCI-H226 lung = test system: NCI-H226 lung
RPMI-8226 leukemia = test system: RPMI-8226 leukemia
RXF 393 renal = test system: RXF 393 renal
HOP-92 NSCLC = test system: HOP-92 NSCLC
NCI-H522 lung = test system: NCI-H522 lung
DU-145 prostate = test system: DU-145 prostate
ACHN renal = test system: ACHN renal
NCI-H322M lung = test system: NCI-H322M lung
OVCAR-4 ovarian = test system: OVCAR-4 ovarian
MDA-MB-231 breast = test system: MDA-MB-231 breast
SF-268 CNS = test system: SF-268 CNS
SF-295 CNS = test system: SF-295 CNS
NCI-H460 NSCLC = test system: NCI-H460 NSCLC
CCRF-CEM leukemia = test system: CCRF-CEM leukemia
SNB-75 CNS = test system: SNB-75 CNS
OVCAR-3 ovarian = test system: OVCAR-3 ovarian
HCC-2998 colon = test system: HCC-2998 colon
OVCAR-5 ovarian = test system: OVCAR-5 ovarian
A549 NSCLC = test system: A549 NSCLC
UO-31 renal = test system: UO-31 renal
SK-MEL-28 melanoma = test system: SK-MEL-28 melanoma
SK-MEL-2 melanoma = test system: SK-MEL-2 melanoma
SK-OV-3 ovarian = test system: SK-OV-3 ovarian
MALME-3M melanoma = test system: MALME-3M melanoma
MDA-MB-468 breast = test system: MDA-MB-468 breast
NCI-H23 lung = test system: NCI-H23 lung
M14 melanoma = test system: M14 melanoma
T-47D breast = test system: T-47D breast
OVCAR-8 ovarian = test system: OVCAR-8 ovarian
MCF7 breast = test system: MCF7 breast
HCT-15 colon = test system: HCT-15 colon
A498 renal = test system: A498 renal
SF-539 CNS = test system: SF-539 CNS
HOP-62 NSCLC = test system: HOP-62 NSCLC
HS 578T breast = test system: HS 578T breast
MOLT-4 leukemia = test system: MOLT-4 leukemia
IGROV1 ovarian = test system: IGROV1 ovarian
PC-3 prostate = test system: PC-3 prostate
LOX IMVI melanoma = test system: LOX IMVI melanoma
COLO 205 colon = test system: COLO 205 colon
SN12C renal = test system: SN12C renal
EKVX NSCLC = test system: EKVX NSCLC
SW-620 colon = test system: SW-620 colon
NCI/ADR-RES ovarian = test system: NCI/ADR-RES ovarian
SNB-19 CNS = test system: SNB-19 CNS
TK-10 renal = test system: TK-10 renal
K-562 leukemia = test system: K-562 leukemia
UACC-257 melanoma = test system: UACC-257 melanoma
KM12 colon = test system: KM12 colon
HCT-116 colon = test system: HCT-116 colon
HT29 colon = test system: HT29 colon
UACC-62 melanoma = test system: UACC-62 melanoma
HL-60(TB) leukemia = test system: HL-60(TB) leukemia
U251 glioblastoma = test system: U251 glioblastoma
SK-MEL-5 melanoma = test system: SK-MEL-5 melanoma
SR leukemia = test system: SR leukemia

## CNC(=O)c1ccccc1Nc1nc(Nc2ccc(N3CCOCC3)cc2OC)ncc1Cl
BT-549 breast
  GI50: 1.26 µM
  TGI: 10.4 µM
MDA-MB-435 melanoma
  GI50: 0.441 µM
  TGI: 6.63 µM
786-0 renal
  GI50: 0.997 µM
  TGI: 4.99 µM
CAKI-1 renal
  GI50: 0.664 µM
  TGI: 2.44 µM
NCI-H226 lung
  GI50: 0.636 µM
  TGI: 5.35 µM
RPMI-8226 leukemia
  GI50: 0.236 µM
  TGI: 0.826 µM
RXF 393 renal
  GI50: 0.467 µM
  TGI: 2.31 µM
HOP-92 NSCLC
  GI50: 0.472 µM
  TGI: 2.23 µM
NCI-H522 lung
  GI50: 0.407 µM
  TGI: 1.72 µM
DU-145 prostate
  GI50: 0.485 µM
  TGI: 3.47 µM
ACHN renal
  GI50: 1.11 µM
  TGI: 9.28 µM
NCI-H322M lung
  GI50: 1.32 µM
  TGI: 3.98 µM
OVCAR-4 ovarian
  GI50: 0.547 µM
  TGI: 18.7 µM
MDA-MB-231 breast
  GI50: 0.715 µM
  TGI: > 100 µM
SF-268 CNS
  GI50: 1.62 µM
  TGI: 14.3 µM
SF-295 CNS
  GI50: 0.511 µM
  TGI: 7.44 µM
NCI-H460 NSCLC
  GI50: 0.267 µM
  TGI: 1.16 µM
CCRF-CEM leukemia
  GI50: 0.199 µM
  TGI: 0.376 µM
SNB-75 CNS
  GI50: 1.16 µM
  TGI: 4.18 µM
OVCAR-3 ovarian
  GI50: 0.716 µM
  TGI: 6.28 µM
HCC-2998 colon
  GI50: 0.711 µM
  TGI: 3.36 µM
OVCAR-5 ovarian
  GI50: 0.597 µM
  TGI: 5.66 µM
A549 NSCLC
  GI50: 0.398 µM
  TGI: 2.12 µM
UO-31 renal
  GI50: 0.718 µM
  TGI: 5.32 µM
SK-MEL-28 melanoma
  GI50: 1.34 µM
  TGI: 13.4 µM
SK-MEL-2 melanoma
  GI50: 0.333 µM
  TGI: 1.67 µM
SK-OV-3 ovarian
  GI50: 0.741 µM
  TGI: 4.8 µM
MALME-3M melanoma
  GI50: 0.287 µM
  TGI: 4.72 µM
MDA-MB-468 breast
  GI50: 0.655 µM
  TGI: 2.2 µM
NCI-H23 lung
  GI50: 0.431 µM
  TGI: 2.63 µM
M14 melanoma
  GI50: 0.359 µM
  TGI: 5.88 µM
T-47D breast
  GI50: 1.71 µM
  TGI: 8.71 µM
OVCAR-8 ovarian
  GI50: 0.846 µM
  TGI: 5.78 µM
MCF7 breast
  GI50: 0.0937 µM
  TGI: 14.6 µM
HCT-15 colon
  GI50: 0.464 µM
  TGI: 10.9 µM
A498 renal
  GI50: 0.519 µM
  TGI: 9.57 µM
SF-539 CNS
  GI50: 1.39 µM
  TGI: 7.13 µM
HOP-62 NSCLC
  GI50: 0.751 µM
  TGI: 8.77 µM
HS 578T breast
  GI50: 0.977 µM
  TGI: 3.47 µM
MOLT-4 leukemia
  GI50: 0.2 µM
  TGI: 0.38 µM
IGROV1 ovarian
  GI50: 0.38 µM
  TGI: 1.91 µM
PC-3 prostate
  GI50: 1.87 µM
  TGI: 13.5 µM
LOX IMVI melanoma
  GI50: 0.754 µM
  TGI: 2.5 µM
COLO 205 colon
  GI50: 0.138 µM
  TGI: 0.289 µM
SN12C renal
  GI50: 1.38 µM
  TGI: 6.86 µM
EKVX NSCLC
  GI50: 0.158 µM
  TGI: 1.32 µM
SW-620 colon
  GI50: 0.4 µM
  TGI: 2.44 µM
NCI/ADR-RES ovarian
  GI50: 0.499 µM
  TGI: 2.72 µM
SNB-19 CNS
  GI50: 2.69 µM
  TGI: 19.6 µM
TK-10 renal
  GI50: 0.45 µM
  TGI: 2.19 µM
K-562 leukemia
  GI50: 4.53 µM
  TGI: 18.1 µM
UACC-257 melanoma
  GI50: 2.62 µM
  TGI: 22.2 µM
KM12 colon
  GI50: 0.261 µM
  TGI: 0.899 µM
HCT-116 colon
  GI50: 0.562 µM
  TGI: 2.85 µM
HT29 colon
  GI50: 0.2 µM
  TGI: 1.66 µM
UACC-62 melanoma
  GI50: 0.487 µM
  TGI: 2.91 µM
HL-60(TB) leukemia
  GI50: 0.107 µM
  TGI: 0.264 µM
U251 glioblastoma
  GI50: 2.35 µM
  TGI: 13.2 µM
SK-MEL-5 melanoma
  GI50: 0.766 µM
  TGI: 10.7 µM

## COc1cc2nc(C)nc(N[C@H](C)c3cc(N)cc(C(F)(F)F)c3)c2cc1O[C@H]1CCOC1
BT-549 breast
  GI50: 8.77 µM
  TGI: 21.2 µM
MDA-MB-435 melanoma
  GI50: 14.5 µM
  TGI: 27.6 µM
786-0 renal
  GI50: 11.8 µM
  TGI: 24.2 µM
CAKI-1 renal
  GI50: 1.97 µM
  TGI: 17 µM
NCI-H226 lung
  GI50: 3.24 µM
  TGI: 19.1 µM
RPMI-8226 leukemia
  GI50: 2.13 µM
  TGI: 13.2 µM
RXF 393 renal
  GI50: 2.43 µM
  TGI: 12.1 µM
HOP-92 NSCLC
  GI50: 0.0895 µM
  TGI: 5.19 µM
NCI-H522 lung
  GI50: 2.34 µM
  TGI: 19.4 µM
DU-145 prostate
  GI50: 14.6 µM
  TGI: 27.9 µM
ACHN renal
  GI50: 13.8 µM
  TGI: 26.7 µM
NCI-H322M lung
  GI50: 11.1 µM
  TGI: 23.1 µM
OVCAR-4 ovarian
  GI50: 8.7 µM
  TGI: 21.4 µM
MDA-MB-231 breast
  GI50: 13.5 µM
  TGI: 26.6 µM
SF-268 CNS
  GI50: 13.5 µM
  TGI: 26.3 µM
SF-295 CNS
  GI50: 12.8 µM
  TGI: 25.4 µM
NCI-H460 NSCLC
  GI50: 12 µM
  TGI: 24.6 µM
CCRF-CEM leukemia
  GI50: 9.35 µM
  TGI: 21.3 µM
SNB-75 CNS
  GI50: 6.26 µM
  TGI: 20 µM
OVCAR-3 ovarian
  GI50: 6.28 µM
  TGI: 20.1 µM
HCC-2998 colon
  GI50: 3.6 µM
  TGI: 15.9 µM
OVCAR-5 ovarian
  GI50: 11 µM
  TGI: 23.1 µM
A549 NSCLC
  GI50: 14.5 µM
  TGI: 27.8 µM
UO-31 renal
  GI50: 12.2 µM
  TGI: 24.7 µM
SK-MEL-28 melanoma
  GI50: 12.6 µM
  TGI: 25.2 µM
SK-MEL-2 melanoma
  GI50: 11.1 µM
  TGI: 23.1 µM
SK-OV-3 ovarian
  GI50: 12.5 µM
  TGI: 25.1 µM
MALME-3M melanoma
  GI50: 8.63 µM
  TGI: 21.1 µM
MDA-MB-468 breast
  GI50: 1.35 µM
  TGI: 11.3 µM
NCI-H23 lung
  GI50: 3.42 µM
  TGI: 17.7 µM
M14 melanoma
  GI50: 11.7 µM
  TGI: 23.9 µM
T-47D breast
  GI50: 10.2 µM
  TGI: 21.9 µM
OVCAR-8 ovarian
  GI50: 12.7 µM
  TGI: 25.3 µM
MCF7 breast
  GI50: 11.3 µM
  TGI: 23.5 µM
HCT-15 colon
  GI50: 11.6 µM
  TGI: 23.9 µM
A498 renal
  GI50: 8.87 µM
  TGI: 21.3 µM
SR leukemia
  GI50: 1.54 µM
  TGI: 8.64 µM
SF-539 CNS
  GI50: 12.7 µM
  TGI: 25.3 µM
HOP-62 NSCLC
  GI50: 6.98 µM
  TGI: 20.1 µM
HS 578T breast
  GI50: 2.1 µM
  TGI: 15.9 µM
MOLT-4 leukemia
  GI50: 4.45 µM
  TGI: 17.4 µM
IGROV1 ovarian
  GI50: 8.69 µM
  TGI: 21.5 µM
PC-3 prostate
  GI50: 11 µM
  TGI: 23.1 µM
LOX IMVI melanoma
  GI50: 13.4 µM
  TGI: 26.3 µM
COLO 205 colon
  GI50: 14 µM
  TGI: 27.1 µM
SN12C renal
  GI50: 2.86 µM
  TGI: 18.2 µM
EKVX NSCLC
  GI50: 2.73 µM
  TGI: 16.2 µM
SW-620 colon
  GI50: 14.1 µM
  TGI: 27.2 µM
NCI/ADR-RES ovarian
  GI50: 12.5 µM
  TGI: 25.4 µM
SNB-19 CNS
  GI50: 12.5 µM
  TGI: 25.1 µM
TK-10 renal
  GI50: 10.9 µM
  TGI: 22.9 µM
K-562 leukemia
  GI50: 0.0364 µM
  TGI: 12.5 µM
UACC-257 melanoma
  GI50: 4.86 µM
  TGI: 16.6 µM
KM12 colon
  GI50: 0.98 µM
  TGI: 17.1 µM
HCT-116 colon
  GI50: 10.5 µM
  TGI: 22.4 µM
HT29 colon
  GI50: 4.69 µM
  TGI: 16.2 µM
UACC-62 melanoma
  GI50: 13.4 µM
  TGI: 26.2 µM
HL-60(TB) leukemia
  GI50: 3.91 µM
  TGI: 14.4 µM
U251 glioblastoma
  GI50: 10.9 µM
  TGI: 22.8 µM
SK-MEL-5 melanoma
  GI50: 3.15 µM
  TGI: 17.1 µM
